± gives the standard deviation of the averaged measurements.
Columns and labels:
Assay in all cases: level (log10 ratio to DMSO vehicle control); higher = higher biomarker level / cell amount than vehicle control
Details in all cases: in DMSO
[1] = compound: OCC(F)(F)C(F)(F)C(F)(F)C(F)(F)C(F)(F)C(F)F [1H,1H,7H-Dodecafluoro-1-heptanol]
Procedure: (§1)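 BioMAP Diversity Plus panel of 12 human primary cell co-culture systems (3C, 4H, LPS, SAg, BT, BF4T, BE3C, CASM3C, HDF3CGF, KF3CT, MyoF, Mphg). Compounds were added 1 h before stimulation and left for 24 h (MyoF 48 h; BT 72 h for soluble read-outs or 6 d for IgG). Biomarkers were read by ELISA, cytotoxicity by SRB, PBMC viability and proliferation by Alamar Blue. Each well value was divided by the mean of 8 DMSO control wells on the same plate and log10 transformed; duplicate blinded samples were tested at 4 concentrations.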

[2] = compound: CC(C)(C)C(=O)CC(=O)C(F)(F)C(F)(F)C(F)(F)F [(Heptafluorobutanoyl)pivaloylmethane]
Procedure: as §1

[3] = compound: CNS(=O)(=O)C(F)(F)C(F)(F)C(F)(F)C(F)(F)C(F)(F)C(F)(F)C(F)(F)C(F)(F)F [N-Methylperfluorooctanesulfonamide]
Procedure: as §1

[4] = compound: O=C(O)C(F)(F)C(F)(F)C(F)(F)C(F)(F)C(F)(F)C(F)(F)C(F)(F)C(F)(F)C(F)(F)C(F)(F)C(F)(F)C(F)(F)F [Perfluorotridecanoic acid]
Procedure: as §1

[5] = compound: O=C(O)C(F)(F)OC(F)(F)C(F)(F)OC(F)(F)C(F)(F)C(F)(F)C(F)(F)F [Perfluoro-3,6-dioxadecanoic acid]
Procedure: as §1

Perfluorooctanamide = compound: NC(=O)C(F)(F)C(F)(F)C(F)(F)C(F)(F)C(F)(F)C(F)(F)C(F)(F)F [Perfluorooctanamide]
Procedure: as §1

| Test System | level (log10) ([1]; 6700 nM) | level (log10) ([1]; 20000 nM) | level (log10) ([1]; 60000 nM) | level (log10) ([2]; 6700 nM) | level (log10) ([2]; 20000 nM) | level (log10) ([2]; 60000 nM) | level (log10) ([3]; 6700 nM) | level (log10) ([3]; 20000 nM) | level (log10) ([3]; 60000 nM) | level (log10) ([4]; 1500 nM) | level (log10) ([4]; 4400 nM) | level (log10) ([4]; 13000 nM) | level (log10) ([4]; 40000 nM) | level (log10) ([5]; 6700 nM) | level (log10) ([5]; 20000 nM) | level (log10) ([5]; 60000 nM) | level (log10) (Perfluorooctanamide; 6700 nM) | level (log10) (Perfluorooctanamide; 20000 nM) | level (log10) (Perfluorooctanamide; 60000 nM) |
| --- | --- | --- | --- | --- | --- | --- | --- | --- | --- | --- | --- | --- | --- | --- | --- | --- | --- | --- | --- |
| BF4T:MMP-1 | 0.0095 ± 0.04 | 0.0145 ± 0.037 | 0.0245 ± 0.0092 | 0.0005 ± 0.0035 | -0.0145 ± 0.0092 | -0.011 ± 0.02 | 0.012 ± 0.02 | 0.0105 ± 0.015 | -0.0105 ± 0.044 | 0 ± 0.025 | -0.005 ± 0.0057 | -0.0015 ± 0.013 | 0.0045 ± 0.00071 | -0.046 ± 0.013 | 0.01 ± 0.037 | 0.0625 ± 0.015 | -0.0195 ± 0.0078 | 0.0055 ± 0.005 | -0.0385 ± 0.011 |
| BF4T:MMP-3 | -0.01 ± 0.034 | -0.012 ± 0.038 | 0.001 ± 0.04 | -0.031 ± 0.02 | -0.0345 ± 0.029 | -0.0285 ± 0.057 | 0.0015 ± 0.046 | 0.012 ± 0.052 | 0.044 ± 0.064 | 0.042 ± 0.054 | -0.0155 ± 0.061 | 0.0115 ± 0.032 | 0.0155 ± 0.012 | 0.008 ± 0.0057 | 0.11 ± 0.015 | 0.161 ± 0.037 | -0.007 ± 0.051 | 0.0125 ± 0.012 | 0.019 ± 0.017 |
| BF4T:MMP-9 | -0.0055 ± 0.03 | -0.011 ± 0.027 | 0.0095 ± 0.046 | -0.009 ± 0.042 | 0.0205 ± 0.029 | 0.033 ± 0.0014 | -0.0095 ± 0.011 | 0.008 ± 0.0014 | -0.021 ± 0.045 | 0.01 ± 0.027 | 0.0075 ± 0.043 | -0.0015 ± 0.036 | 0.033 ± 0.078 | -0.035 ± 0.0057 | -0.0215 ± 0.0064 | -0.051 ± 0.02 | -0.0065 ± 0.011 | 0.0015 ± 0.039 | -0.031 ± 0.048 |
| BF4T:PAI-I | 0.0055 ± 0.005 | -0.0035 ± 0.013 | 0.0105 ± 0.013 | -0.0045 ± 0.0021 | 0.001 ± 0.0028 | 0.0085 ± 0.012 | 0.0005 ± 0.018 | 0.0015 ± 0.028 | 0.0285 ± 0.033 | 0.0025 ± 0.028 | 0.005 ± 0.017 | 0.007 ± 0.02 | 0.0235 ± 0.0021 | -0.057 ± 0.011 | -0.0575 ± 0.005 | -0.054 ± 0.042 | -0.009 ± 0.023 | -0.004 ± 0.017 | 0.0065 ± 0.005 |
| BF4T:SRB | -0.007 ± 0.0028 | -0.01 | -0.0005 ± 0.005 | -0.006 ± 0.0085 | 0.0075 ± 0.0021 | 0.0055 ± 0.023 | -0.016 ± 0.0071 | -0.021 ± 0.0042 | -0.0115 ± 0.013 | 0.009 ± 0.0042 | -0.0045 ± 0.005 | 0.0025 ± 0.011 | 0.008 ± 0.013 | -0.024 ± 0.0014 | -0.023 ± 0.0057 | -0.053 ± 0.0085 | -0.005 ± 0.0042 | 0.008 ± 0.011 | -0.006 ± 0.0042 |
| BF4T:tPA | 0.0045 ± 0.0078 | -0.0025 ± 0.00071 | 0.01 ± 0.011 | -0.024 ± 0.027 | -0.033 ± 0.0057 | -0.0225 ± 0.026 | 0.0145 ± 0.011 | 0.0325 ± 0.03 | 0.0515 ± 0.019 | 0.025 ± 0.05 | -0.009 ± 0.017 | -0.0045 ± 0.015 | -0.0085 ± 0.018 | -0.051 ± 0.0014 | -0.0565 ± 0.026 | 0.0105 ± 0.05 | -0.015 ± 0.034 | -0.006 ± 0.017 | -0.004 ± 0.0042 |
| BF4T:uPA | -0.0125 ± 0.019 | -0.0145 ± 0.0021 | -0.002 ± 0.0014 | -0.006 ± 0.011 | -0.0085 ± 0.005 | -0.025 ± 0.0014 | 0.0055 ± 0.0064 | 0.01 ± 0.014 | 0.0385 ± 0.028 | 0.0185 ± 0.018 | 0.011 ± 0.0042 | 0.0095 ± 0.0021 | 0.0155 ± 0.005 | 0.0105 ± 0.005 | 0.008 ± 0.013 | 0.025 ± 0.031 | -0.0175 ± 0.015 | -0.004 ± 0.038 | 0.016 ± 0.027 |
| BT:B cell Proliferation | -0.014 ± 0.0028 | -0.035 ± 0.0014 | -0.04 ± 0.02 | 0.007 ± 0.0099 | 0.007 ± 0.028 | 0.033 ± 0.0057 | 0.006 ± 0.0028 | -0.007 ± 0.023 | -0.0195 ± 0.03 | -0.0035 ± 0.052 | 0.029 ± 0.016 | 0.01 ± 0.011 | 0.0265 ± 0.035 | 0.012 ± 0.0071 | 0.0415 ± 0.019 | 0.055 ± 0.011 | 0.013 ± 0.024 | 0.0055 ± 0.00071 | -0.028 ± 0.054 |
| BT:PBMC Cytotoxicity | -0.0155 ± 0.0021 | -0.016 ± 0.013 | -0.049 ± 0.0028 | 0.0255 ± 0.0035 | -0.019 ± 0.011 | 0.0105 ± 0.042 | 0.0045 ± 0.019 | 0.016 ± 0.0099 | 0.0445 ± 0.011 | -0.0035 ± 0.00071 | 0.0245 ± 0.005 | 0.018 ± 0.011 | 0.0165 ± 0.029 | 0.017 ± 0.028 | 0.0265 ± 0.0021 | 0.0915 ± 0.005 | 0.012 ± 0.024 | 0.0275 ± 0.025 | 0.0635 ± 0.0035 |
| BT:Secreted IgG | 0.014 ± 0.025 | -0.01 ± 0.028 | -0.0275 ± 0.03 | -0.0115 ± 0.016 | -0.009 ± 0.017 | -0.023 ± 0.02 | 0.001 ± 0.0028 | -0.0745 ± 0.0092 | -0.306 ± 0.21 | 0.001 ± 0.042 | -0.0025 ± 0.067 | -0.027 ± 0.052 | -0.029 ± 0.02 | 0.0295 ± 0.012 | 0.0235 ± 0.033 | -0.0365 ± 0.0064 | 0.0065 ± 0.0064 | 0.005 ± 0.023 | 0.0215 ± 0.025 |
| BT:sIL-2 | 0.026 ± 0.013 | -0.0265 ± 0.005 | -0.025 ± 0.045 | -0.0485 ± 0.069 | -0.022 ± 0.0057 | 0.0155 ± 0.067 | -0.0385 ± 0.073 | -0.0105 ± 0.032 | 0.0385 ± 0.083 | 0.064 | 0.061 ± 0.0042 | 0.0925 ± 0.022 | 0.093 ± 0.14 | 0.0465 ± 0.036 | 0.0285 ± 0.16 | -0.011 ± 0.095 | 0.0115 ± 0.063 | 0.0045 ± 0.084 | -0.176 ± 0.17 |
| BT:sIL-6 | 0.007 ± 0.085 | -0.037 ± 0.014 | -0.113 ± 0.068 | -0.038 ± 0.038 | -0.029 ± 0.0057 | -0.013 ± 0.023 | -0.0045 ± 0.04 | 0.003 ± 0.0042 | -0.083 ± 0.03 | 0.033 ± 0.086 | -0.0175 ± 0.026 | 0.011 ± 0.12 | -0.0485 ± 0.066 | 0.0375 ± 0.029 | 0.0265 ± 0.039 | -0.058 ± 0.033 | 0.01 ± 0.023 | 0.0355 ± 0.03 | -0.07 ± 0.025 |
| BT:sIL-17A | -0.182 ± 0.044 | -0.091 ± 0.14 | -0.174 ± 0.16 | -0.0075 ± 0.013 | -0.0315 ± 0.053 | -0.194 ± 0.18 | 0.151 ± 0.14 | -0.065 ± 0.0085 | -0.0925 ± 0.3 | -0.134 ± 0.0028 | -0.113 ± 0.014 | 0.155 ± 0.15 | -0.104 ± 0.11 | 0.034 ± 0.12 | 0.045 ± 0.22 | -0.147 ± 0.065 | 0.122 ± 0.016 | 0.0965 ± 0.0035 | 0.034 ± 0.26 |
